In patent US11396503B2, “Sulfonyl substituted bicyclic compound which acts as ROR inhibitor” (CHIA TAI TIANQING PHARMACEUTICAL GROUP CO., LTD, priority 2017, dated 2022):

Molecular target: T1, hRORγt (Homo sapiens, UniProt P51449)
T1 construct: expressed in transfected cells; host or cells: CHO-S (Chinese hamster ovary cells, Invitrogen R80007), transiently transfected with pM-hRORγt and pG5-luc
T1 sequence (P51449 1-497 isoform P51449-2): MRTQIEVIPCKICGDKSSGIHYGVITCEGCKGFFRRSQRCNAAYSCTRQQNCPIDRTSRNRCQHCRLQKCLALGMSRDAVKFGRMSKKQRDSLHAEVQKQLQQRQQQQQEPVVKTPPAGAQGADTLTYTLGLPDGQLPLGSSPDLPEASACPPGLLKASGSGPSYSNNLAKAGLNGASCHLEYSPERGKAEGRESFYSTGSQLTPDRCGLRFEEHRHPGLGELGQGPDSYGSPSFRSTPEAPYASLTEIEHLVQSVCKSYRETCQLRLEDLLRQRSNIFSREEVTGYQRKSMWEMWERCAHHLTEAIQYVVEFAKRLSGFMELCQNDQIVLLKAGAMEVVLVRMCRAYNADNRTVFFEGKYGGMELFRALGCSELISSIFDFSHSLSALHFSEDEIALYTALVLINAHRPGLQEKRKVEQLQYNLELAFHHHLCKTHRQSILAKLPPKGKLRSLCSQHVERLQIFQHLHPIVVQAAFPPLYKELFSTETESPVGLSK
Assay: Luciferase assay (reporter gene, recombinant plasmid hRORγt)
Type: cell-based
Details: CHO-S cells transfected with pM-hRORγt and pG5-luc; overnight culture with compound; ONE-Glo luciferase readout; read-out: RORgt EC50
Description: This assay method used luciferase as a reporter gene to detect the expression of cells transfected with a gene recombinant plasmid at gene transcription level, wherein the recombinant plasmid was constructed by the promoter of a target gene and a luciferase gene. The experiment was primarily related to the transfection of the recombinant plasmid hRORγt (“RORgt”).
I. Reagents and Materials:
1. Cells: Chinese hamster ovary cells (CHO—S, Invitrogen, Cat #R80007), suspension-cultured in CD-CHO culture medium containing 8 mM L-glutamine and 1×HT.
a) Luciferase reporter gene plasmid pG5-luc: reporter plasmid (Promega).
b) Target gene plasmid pM-hRORγt: human RORgamma.
4. Transfection reagent: TransIT-CHO transfection kit (Minis Bio Co.) containing Trans-It reagent and Mojo reagent (Minis, MIR2170).
7. Luciferase kit: (Promega ONE-Glo, 100 ml, Catalog #E6120): containing luciferase substrate (Coenzyme A, ATP and luciferin) and a reaction buffer.
II. Specific Experimental Steps
1. Cell seeding: 18 to 24 h before transfection, a 125 mL shake flask was charged with CHO—S cells having a concentration of 0.5×10^6 cells/mL to 0.6×10^6 cells/mL, and CD-CHO culture medium (the culture medium only contained L-glutamine and an HT supplement) was added thereto to a final volume of 18 mL. The shake flask was placed on a shaker, and the cells were passaged overnight under a condition of 120 rpm, 37° C. and 8% CO2.
2. Cell transfection: At this time, the cell concentration of the above-mentioned solution should be 1.2×10^6 cells/mL to 1.5×10^6 cells/mL. CD-CHO culture medium (containing L-glutamine and an HT supplement) was used for dilution until the cell concentration reached 1×10^6 cells/mL.
B. Preparation of transfection reagent (TransIT-CHO: Mojo: DNA complex), which was formulated immediately before transfection.
1. Trans-IT reagent was warmed to room temperature in advance and shaken to be uniformly mixed before use.
2. Preparation for DNA transfection: the following reagents were mixed in a 1.5 mL sterile centrifuge tube:
27 μg of luciferase reporter gene plasmid pG5-luc: 27 μL, 1 mg/mL solution,
0.75 μg of the expression plasmid of the target gene (pM-hRORγt, 7.5 μL, 0.1 mg/mL solution).
3. The following reagents were charged into a 15 mL sterile centrifuge tube:
83 μL of TransIT-CHO reagent
the DNA complex prepared in step 2
4. The mixture was mixed well and placed at room temperature for 5 min.
5. 13.9 μL of Mojo reagent was charged into a sterile centrifuge tube, mixed slightly, and placed at room temperature for 20 min to form a transfection complex.
1. A 125 mL shake flask was charged with the transfection complex prepared in step B dropwise while being shaken slowly.
2. The cells were cultured for 4 h in a shaker under a condition of 37° C. and 8% carbon dioxide.
3. After 4 h, the cells were transferred to a 50 mL sterile centrifuge tube, centrifuged at 1200 rpm for 4 min, and the supernatant was aspirated.
4. The cells were re-suspended in 6 mL of a freezing medium (CD-CHO, L-glutamine, HT supplement, and 10% DMSO), and the cell density should be 3×10^6 cells/ml at this time.
5. The mixture was dispensed into 12 tubes with 0.5 mL in each tube. The tubes were placed in a refrigerator at −80° C. to be slowly frozen overnight, and then were transferred into liquid nitrogen for long-term storage.
D. Luciferase activity assay (96-well flat plate)
1. The cells were thawed at 37° C.
2. The cells (1.5×10^6 cells/0.5 mL) were diluted with 2 mL of freshly formulated culture medium (CD-CHO, L-glutamine and an HT supplement) to a volume of 2.5 mL, and then were transferred to a 15 mL sterile centrifuge tube.
3. Cell counting: If the cells were completely viable, a concentration of 6×10^5 cells/mL should be achieved. […] If necessary, the cells were diluted with culture medium.
4. Cell seeding: 100 μl cells (4×10^4 cells) were added to each well.

| EC50 [pM] | Compound |
| --- | --- |
| 23600 | CCc1ccc2c(c1)CCC(C)N2S(=O)(=O)c1ccc(OCC2CCOCC2)c(CO)c1 (stereo not shown) |
| 12000 | C=C(C)c1ccc2c(c1)CCC(CC)N2S(=O)(=O)c1ccc(OCC2CCOCC2)c(CO)c1 (stereo not shown) |
| 858000 | CCc1ccc2c(c1)CCCN2S(=O)(=O)c1ccc(OCC2CCOCC2)c(CO)c1 |
| 1.61e+06 | CCc1ccc2c(c1)CC(C)N2S(=O)(=O)c1ccc(OCC2CCOCC2)c(CO)c1 (stereo not shown) |
| 218000 | CCc1ccc2c(c1)CC[C@@H](C)N2S(=O)(=O)c1ccc(OCC2CCOCC2)c(CO)c1 |
| 25000 | CCc1ccc2c(c1)CC[C@H](C)N2S(=O)(=O)c1ccc(OCC2CCOCC2)c(CO)c1 |
| 36000 | CCc1ccc2c(c1)CC(C)CN2S(=O)(=O)c1ccc(OCC2CCOCC2)c(CO)c1 (stereo not shown) |
| 1.4e+06 | CCc1ccc2c(c1)C(C)CN2S(=O)(=O)c1ccc(OCC2CCOCC2)c(CO)c1 (stereo not shown) |
| 2.63e+06 | CCc1ccc2c(c1)CCN2S(=O)(=O)c1ccc(OCC2CCOCC2)c(CO)c1 |
| 15000 | CC1CCc2cc(C(F)(F)F)ccc2N1S(=O)(=O)c1ccc(OCC2CCOCC2)c(CO)c1 (stereo not shown) |
| 14900 | CC(C)c1ccc2c(c1)CCC(C)N2S(=O)(=O)c1ccc(OCC2CCOCC2)c(CO)c1 (stereo not shown) |
| 1.86e+06 | CCc1ccc2c(c1)CCC(CC)N2S(=O)(=O)c1ccc(OCC2CCOCC2)c(S(C)(=O)=O)c1 (stereo not shown) |
| 212000 | CCc1ccc2c(c1)CCC(CC)N2S(=O)(=O)c1ccc(OCC2CCOCC2)c(CO)n1 (stereo not shown) |
| 576000 | CCc1ccc2c(c1)CCC(CC)N2S(=O)(=O)c1ccc(OCC2CCOCC2)c(S(N)(=O)=O)c1 (stereo not shown) |
| 35500 | C=Cc1ccc2c(c1)CCC(CC)N2S(=O)(=O)c1ccc(OCC2CCOCC2)c(CO)c1 (stereo not shown) |
| 13600 | CCc1ccc2c(c1F)CCC(CC)N2S(=O)(=O)c1ccc(OCC2CCOCC2)c(CO)c1 (stereo not shown) |
| 11500 | [2H]C([2H])(O)c1cc(S(=O)(=O)N2c3ccc(C(C)C)cc3CCC2CC)ccc1OCC1CCOCC1 (stereo not shown) |
| 15600 | CCC1CCc2cc(C(C)(F)F)ccc2N1S(=O)(=O)c1ccc(OCC2CCOCC2)c(CO)c1 (stereo not shown) |
| 23000 | CCc1ccc2c(c1)CCC(C(F)(F)F)N2S(=O)(=O)c1ccc(OCC2CCOCC2)c(CO)c1 (stereo not shown) |
| 655000 | CCc1ccc2c(c1)C(C)CCN2S(=O)(=O)c1ccc(OCC2CCOCC2)c(CO)c1 (stereo not shown) |

| EC50 [pM] | Compound |
| --- | --- |
| 17900 | CCCc1ccc2c(c1)CCC(C)N2S(=O)(=O)c1ccc(OCC2CCOCC2)c(CO)c1 (stereo not shown) |
| 11000 | CCc1ccc2c(c1)CCC(CC)N2S(=O)(=O)c1ccc(OCC2CCOCC2)c(CO)c1 (stereo not shown) |
| 689000 | CC1CCc2cc(C#N)ccc2N1S(=O)(=O)c1ccc(OCC2CCOCC2)c(CO)c1 (stereo not shown) |
| 151000 | CCc1cc(F)c2c(c1)CC[C@H](C)N2S(=O)(=O)c1ccc(OCC2CCOCC2)c(CO)c1 |
| 23000 | CCC1CCc2cc(CC(F)(F)F)ccc2N1S(=O)(=O)c1ccc(OCC2CCOCC2)c(CO)c1 (stereo not shown) |
| 20700 | CC1CCc2cc(C3CC3)ccc2N1S(=O)(=O)c1ccc(OCC2CCOCC2)c(CO)c1 (stereo not shown) |
| 31600 | CCc1ccc2c(c1)CC(CC)CN2S(=O)(=O)c1ccc(OCC2CCOCC2)c(CO)c1 (stereo not shown) |
| 310000 | CCc1ccc2c(c1)CCC(C)(C)N2S(=O)(=O)c1ccc(OCC2CCOCC2)c(CO)c1 |
| 96500 | CCc1cc2c(cc1F)N(S(=O)(=O)c1ccc(OCC3CCOCC3)c(CO)c1)[C@@H](C)CC2 |
| 48000 | CC[C@@H]1CCc2cc(C(C)C)ccc2N1S(=O)(=O)c1ccc(OCC2CCOCC2)c(CO)c1 |
| 4200 | CCc1ccc2c(c1)CC[C@@H](CC)N2S(=O)(=O)c1ccc(OCC2CCOCC2)c(CO)c1 |
| 201000 | CCc1ccc2c(c1)CCC(CC)N2S(=O)(=O)c1ccc(C(O)CC2CCOCC2)c(CO)c1 (stereo not shown) |
| 12400 | CCc1ccc2c(c1)CCC(C(C)C)N2S(=O)(=O)c1ccc(OCC2CCOCC2)c(CO)c1 (stereo not shown) |
| 1.4e+06 | CCC1CCc2cc(C(C)(C)O)ccc2N1S(=O)(=O)c1ccc(OCC2CCOCC2)c(CO)c1 (stereo not shown) |
| 3.12e+06 | CCc1ccc2c(c1)CCC(CC)N2S(=O)(=O)c1ccc(C(CO)N2CCOCC2)c(CO)c1 (stereo not shown) |
| 595000 | CCc1ccc2c(c1)CCC(CC)N2S(=O)(=O)c1ccc(C(O)CN2CCOCC2)c(CO)c1 (stereo not shown) |
| 34900 | CCc1ccc2c(c1)CC[C@H](CC)N2S(=O)(=O)c1ccc(OCC2CCOCC2)c(CO)c1 |
| 6800 | CC[C@H]1CCc2cc(C(C)C)ccc2N1S(=O)(=O)c1ccc(OCC2CCOCC2)c(CO)c1 |
| 316000 | C[C@H]1CCc2cc(CC(F)(F)F)ccc2N1S(=O)(=O)c1ccc(OCC2CCOCC2)c(CO)c1 |
| 223000 | CCc1ccc2c(c1)N(S(=O)(=O)c1ccc(OCC3CCOCC3)c(CO)c1)[C@@H](C)CC2 |

| EC50 [pM] | Compound |
| --- | --- |
| 71000 | CC[C@H]1CCc2cc(C(F)(F)F)ccc2N1S(=O)(=O)c1ccc(OCC2CCOCC2)c(CO)c1 |
| 3500 | CCC1CCc2cc(C(C)C)ccc2N1S(=O)(=O)c1ccc(OCC2CCOCC2)c(CO)c1 (stereo not shown) |
| 330000 | C[C@H]1CCc2ccc(C(F)(F)F)cc2N1S(=O)(=O)c1ccc(OCC2CCOCC2)c(CO)c1 |
| 5200 | CC[C@@H]1CCc2cc(C3CCC3)ccc2N1S(=O)(=O)c1ccc(OCC2CCOCC2)c(CO)c1 |
| 21100 | CCC1CCc2cc(C(F)(F)F)ccc2N1S(=O)(=O)c1ccc(OCC2CCOCC2)c(CO)c1 (stereo not shown) |
| 70200 | CCC1CCc2cc(C(C)(C)C)ccc2N1S(=O)(=O)c1ccc(OCC2CCOCC2)c(CO)c1 (stereo not shown) |
| 5400 | CC[C@@H]1CCc2cc(C(F)(F)F)ccc2N1S(=O)(=O)c1ccc(OCC2CCOCC2)c(CO)c1 |
| 7000 | CCc1ccc2c(c1)CCC(C1CC1)N2S(=O)(=O)c1ccc(OCC2CCOCC2)c(CO)c1 (stereo not shown) |
| 5500 | CCC1CCc2cc(C3CCC3)ccc2N1S(=O)(=O)c1ccc(OCC2CCOCC2)c(CO)c1 (stereo not shown) |
| 10000 | CC[C@@H]1CCc2cc(C(C)(F)F)ccc2N1S(=O)(=O)c1ccc(OCC2CCOCC2)c(CO)c1 |
| 21000 | CCc1ccc2c(c1)CCC(CC(C)C)N2S(=O)(=O)c1ccc(OCC2CCOCC2)c(CO)c1 (stereo not shown) |
| 146000 | CCc1ccc2c(c1)CCC(CC)N2S(=O)(=O)c1ccc(OCC2CCS(=O)(=O)CC2)c(CO)c1 (stereo not shown) |
| 181000 | C[C@H]1CCc2cc(C(C)(F)F)ccc2N1S(=O)(=O)c1ccc(OCC2CCOCC2)c(CO)c1 |
| 803000 | CCc1ccc2c(c1)C[C@@H](O)[C@H](C)N2S(=O)(=O)c1ccc(OCC2CCOCC2)c(CO)c1 |
| 3200 | CCc1ccc2c(c1)CC[C@@H](C1CC1)N2S(=O)(=O)c1ccc(OCC2CCOCC2)c(CO)c1 |
| 18000 | Cc1cc(C)c2c(c1)CCC(C1CC1)N2S(=O)(=O)c1ccc(OCC2CCOCC2)c(CO)c1 (stereo not shown) |
| 8100 | CCc1ccc2c(c1)CCC(C1CCC1)N2S(=O)(=O)c1ccc(OCC2CCOCC2)c(CO)c1 (stereo not shown) |
| 6600 | CC(C)c1ccc2c(c1)CCC(C1CC1)N2S(=O)(=O)c1ccc(OCC2CCOCC2)c(CO)c1 (stereo not shown) |
